According to the NIST ThermoML archive (doi:10.1016/j.jct.2006.09.008):

Experiment: molar heat capacity at constant pressure; mn = molality of the nth substance listed, in mol/kg
Details: 350 kPa, Liquid

O=[N+]([O-])[O-].O=[N+]([O-])[O-].[Sr+2] [strontium nitrate] + O
molar heat capacity at constant pressure [J/K/mol]
Details	m1 = 0.0499	m1 = 0.1006	m1 = 0.2005	m1 = 0.4995	m1 = 0.7992	m1 = 0.9995	m1 = 1.502	m1 = 2.003	m1 = 3.001
278.15 K	75.4	75.15	74.75	74.1	73.96	74.06	74.66	75.65	77.88
283.15 K	75.27	75.05	74.7	74.14	74.04	74.14	74.76	75.76	77.98
288.15 K	75.18	74.99	74.68	74.19	74.11	74.22	74.84	75.84	78.06
293.15 K	75.13	74.95	74.67	74.24	74.18	74.3	74.92	75.92	78.12
298.15 K	75.1	74.94	74.68	74.29	74.25	74.37	74.99	75.99	78.17
303.15 K	75.08	74.93	74.7	74.34	74.31	74.43	75.05	76.04	78.21
308.15 K	75.08	74.94	74.72	74.39	74.37	74.49	75.1	76.09	78.24
313.15 K	75.09	74.95	74.75	74.44	74.42	74.55	75.15	76.13	78.27
318.15 K	75.11	74.98	74.79	74.49	74.48	74.6	75.2	76.17	78.29
323.15 K	75.14	75.01	74.83	74.55	74.54	74.66	75.25	76.2	78.31
328.15 K	75.17	75.05	74.87	74.6	74.59	74.71	75.29	76.24	78.32
333.15 K	75.21	75.1	74.92	74.66	74.65	74.76	75.33	76.27	78.34
338.15 K	75.26	75.15	74.98	74.72	74.71	74.82	75.37	76.3	78.36
343.15 K	75.32	75.21	75.04	74.78	74.77	74.87	75.41	76.33	78.38
348.15 K	75.39	75.27	75.11	74.85	74.83	74.93	75.46	76.36	78.41
353.15 K	75.46	75.34	75.18	74.91	74.89	74.98	75.5	76.4	78.43
358.15 K	75.54	75.42	75.25	74.98	74.95	75.04	75.55	76.44	78.47
363.15 K	75.62	75.5	75.33	75.06	75.02	75.11	75.6	76.48	78.52
368.15 K	75.71	75.59	75.42	75.14	75.09	75.17	75.65	76.53	78.57
373.15 K	75.81	75.69	75.51	75.22	75.17	75.24	75.71	76.59	78.64
378.15 K	75.92	75.8	75.61	75.31	75.25	75.32	75.78	76.65	78.72
383.15 K	76.04	75.91	75.72	75.4	75.33	75.4	75.85	76.72	78.82
388.15 K	76.16	76.03	75.83	75.5	75.42	75.49	75.93	76.8	78.94
393.15 K	76.3	76.16	75.95	75.61	75.52	75.58	76.02	76.89	79.07
